# What was measured:
# [1] = system: Kuramochi cells; assay: Cellular Viability Assay (5 day Kuramochi cell viability, CellTiter-Glo); format: cell-based; details: 5 days, 37 °C, growth inhibition relative to Day 0 (T0) and DMSO
# Protocol: Kuramochi cells were seeded at a density of 1000 cells per well in a 384-well, white, sterile, clear bottom plate, using a Multidrop liquid dispenser and incubated for 24 hours at 37 °C in a 5% CO2 humidified environment. 24 hours later, compounds were added starting at a top dose of 10 μM for a 9-point dose response curve at a 1:3 dilution using an iDOT HT liquid handler and incubated for 5 days at 37 °C in a 5% CO2 humidified environment. After 5 days and at Day 0, plates were incubated at room temperature for 30 minutes followed by the addition of 30 μl of CellTiter-Glo Reagent. Plates were then mixed for 10 minutes on an orbital shaker followed by incubation at room temperature for 20 minutes. Luminescence was then read using the Envision plate reader. Percent Growth Inhibition was then calculated using the following equation: Percent Growth Inhibition normalized=100−(compound signal−T0)/(max signal−T0)*100%, where Max Signal refers to the DMSO only treated cells and T0 refers to the Day0 viability measurement. Growth Inhibition 50 was then calculated using the following equation: Y=Bottom+(Top−Bottom)/(1+10^((Log IC50−X)*hillslope)).
# For cell activity, bracket is denoted as: A<1 uM; 1 uM<B<5 uM; C>5 uM.
# [2] = biological target: T1, N-his8-TEV-hPARG (389-976) (Homo sapiens, UniProt Q86W56); assay: PARG Biochemical Enzymatic Assay (PARG inhibition HTRF assay); details: 62.5 pM PARG, 5 nM Biotin-Parylated PARP1 substrate, 60 minutes preincubation, 10 minutes reaction at 23 °C
# T1 construct: N-his8-TEV-hPARG (389-976); His8 (N); TEV protease cleavage site (N); made in house; host or cells: E. coli BL21(DE3)
# Protocol: PARG Biochemical Enzymatic Assay
# TEV-His8-PolyADP-Ribose Polymerase 1 (379-1014) (PARP1) and N-his8-TEV-hPARG (389-976) were used to transform BL21(DE3) competent cells followed by growth for 1 hour at 37 °C and plating on Kanamycin resistant agar plates. A single colony was then inoculated into 1 ml of Luria Broth and expansion into a 1 liter scale for growth at 37 °C for 3 hours. Expression was induced via 0.2 mM IPTG induction for 20 hours at 16 °C in BL21(DE3) E. coli. Purification was then performed using a Nickel column, size exclusion chromatography and HPLC analysis.
# For substrate preparation, […] nicked DNA and 2 μM PARP1 protein were mixed for 10 minutes at 25 °C 10 μM biotin-NAD+ and 100 μM NAD+ were then added and incubated for 60 minutes at 30 °C to yield PARylated PARP1 substrate.
# For compound screening, compounds were serially diluted to a 3× final concentration in assay buffer (Tris pH7.5 50 mM, KCl 50 mM, Tween-20 0.01%, BSA 0.1 mg/ml, EDTA 3 mM, EGTA 0.4 mM, DTT 1 mM) containing 1% DMSO. A top concentration of 1.5 μM for a 10-point dose response curve using a 1:3 dilution curve was used. 2.5×PARG (156.25 pM working concentration, 62.5 pM final concentration) was prepared in assay buffer and 4 ul added to a 384 well assay plate containing 2 μl of serially diluted compound. The plate was then centrifuged for 10 seconds and incubated for 60 minutes at 23 °C. 4 μl of 2.5× Biotin-Parylated PARP1 (12.5 nM working concentration, 5 nM final concentration) was then added to the plate and incubated for 10 minutes at 23 °C. 4 μl of […] Detection reagent containing 0.44 μg/ml of Streptavidin-Europium cryptate and 4 μg/ml of anti-6His-XL665 monoclonal antibody was added to the plate and incubated for 60 minutes at 23 °C. The Homogeneous Time Resolved Fluorescent (HTRF) signal was then measured on an Envision plate reader using and excitation wavelength of 337 nm and emission wavelengths of 615 nm and 665 nm. Normalized percent inhibition was then calculated using the following equation: % Inhibition normalized=(compound signal-min signal)/(max signal-min signal)*100%, where Maximum signal was substrate only wells and Minimum signal was enzyme and substrate well. IC50 was calculated by fitting % Inhibition values and log of compound concentrations to nonlinear regression (log(inhibitor) vs. response—Variable slope(four parameters)) with GraphPad 9.4.1
# For biochemical activity, bracket is denoted as: A<100 nM; 100 nM<B<500 nM; C>500 nM
# T1 sequence (Q86W56 389-976): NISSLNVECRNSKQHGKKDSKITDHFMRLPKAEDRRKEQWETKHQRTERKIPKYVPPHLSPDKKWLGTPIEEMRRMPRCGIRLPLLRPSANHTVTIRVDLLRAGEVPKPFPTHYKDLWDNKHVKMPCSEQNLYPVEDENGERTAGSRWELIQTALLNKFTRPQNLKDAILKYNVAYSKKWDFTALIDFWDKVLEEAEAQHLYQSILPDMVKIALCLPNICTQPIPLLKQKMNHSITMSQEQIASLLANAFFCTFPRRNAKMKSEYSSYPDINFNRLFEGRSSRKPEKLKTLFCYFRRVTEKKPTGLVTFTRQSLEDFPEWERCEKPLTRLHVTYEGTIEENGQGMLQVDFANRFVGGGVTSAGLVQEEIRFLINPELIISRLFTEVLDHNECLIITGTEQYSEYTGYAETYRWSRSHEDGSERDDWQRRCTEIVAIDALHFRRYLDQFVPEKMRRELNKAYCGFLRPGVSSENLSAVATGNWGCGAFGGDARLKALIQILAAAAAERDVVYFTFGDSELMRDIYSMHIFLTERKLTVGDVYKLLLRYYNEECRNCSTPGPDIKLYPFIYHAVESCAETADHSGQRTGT
SMILES,IC50 [2],IC50 [1]
"C#CC1(NS(=O)(=O)c2cc(N3CCN(C(=O)N4CC[C@H](O)C4)CC3)c3cnn(-c4nnc(C(F)F)s4)c3c2)CC1 [Example 26, 1-[5-(difluoromethyl)-1,3,4-thiadiazol-2-yl]-N-(1-ethynylcyclopropyl)-4-[4-[(3S)-3-hydroxypyrrolidine-1-carbonyl]piperazin-1-yl]indazole-6-sulfonamide]",< 100 nM,< 1000 nM
"CC1(C(=O)N2CCN(c3cc(S(=O)(=O)NC4(C#N)CC4)cc4c(-c5nnc(C(F)F)s5)cnn34)CC2)CCC1 [Example 19, N-(1-cyanocyclopropyl)-3-[5-(difluoromethyl)-1,3,4-thiadiazol-2-yl]-7-[4-(1-methylcyclobutanecarbonyl)piperazin-1-yl]pyrazolo[1,5-a]pyridine-5-sulfonamide]",< 100 nM,< 1000 nM
"O=S(=O)(NC1(C(F)F)CC1)c1cc(N2CCC3(CC2)COC3)c2nnc(-c3nnc(C(F)F)s3)n2c1 [Example 40, 3-(5-(Difluoromethyl)-1,3,4-thiadiazol-2-yl)-N-(1-(difluoromethyl)cyclopropyl)-8-(2-oxa-7-azaspiro[3.5]nonan-7-yl)-[1,2,4]triazolo[4,3-a]pyridine-6-sulfonamide]",< 100 nM,< 1000 nM
CC1(NS(=O)(=O)c2cc(N3CCC4(CC3)COC4)n3ncc(-c4nncs4)c3c2)CC1 [Example 5],< 100 nM,< 1000 nM
"CC1(NS(=O)(=O)c2cc(-n3cc(C4(O)CCC4)cn3)c3cnn(-c4nnc(C5(O)CCC5)s4)c3c2)CC1 [Example 31, 4-[4-(1-hydroxycyclobutyl)pyrazol-1-yl]-1-[5-(1-hydroxycyclobutyl)-1,3,4-thiadiazol-2-yl]-N-(1-methylcyclopropyl)indazole-6-sulfonamide]",100 to 500 nM,1000 to 5000 nM
"N#CC1(NS(=O)(=O)c2cc(C3=CCN(C(=O)C4CC4)CC3)n3ncc(-c4nnc(C(F)F)s4)c3c2)CC1 [Example 6, N-(1-cyanocyclopropyl)-7-(1-(cyclopropanecarbonyl)-1,2,3,6-tetrahydropyridin-4-yl)-3-(5-(difluoromethyl)-1,3,4-thiadiazol-2-yl)pyrazolo[1,5-a]pyridine-5-sulfonamide]",< 100 nM,< 1000 nM
"O=S(=O)(NC1(C(F)(F)F)CC1)c1cc(N2CCC3(CC2)COC3)n2ncc(-c3nnc(C(F)F)s3)c2c1 [Example 13, 3-[5-(difluoromethyl)-1,3,4-thiadiazol-2-yl]-7-(2-oxa-7-azaspiro[3.5]nonan-7-yl)-N-[1-(trifluoromethyl)cyclopropyl]pyrazolo[1,5-a]pyridine-5-sulfonamide]",100 to 500 nM,1000 to 5000 nM
"CC(C)OC(=O)N1CCN(c2cc(S(=O)(=O)NC3(C#N)CC3)cc3c(-c4nnc(C(F)F)s4)cnn23)CC1 [Example 17, Isopropyl 4-(5-(N-(1-cyanocyclopropyl)sulfamoyl)-3-(5-(difluoromethyl)-1,3,4-thiadiazol-2-yl)pyrazolo[1,5-a]pyridin-7-yl)piperazine-1-carboxylate]",< 100 nM,< 1000 nM
"N#CC1(c2nnc(-n3ncc4c(N5CCC6(CC5)COC6)cc(S(=O)(=O)NC5(C(F)F)CC5)cc43)s2)CC1 [Example 32, 1-(5-(1-cyanocyclopropyl)-1,3,4-thiadiazol-2-yl)-N-(1-(difluoromethyl)cyclopropyl)-4-(2-oxa-7-azaspiro[3.5]nonan-7-yl)-1H-indazole-6-sulfonamide]",< 100 nM,< 1000 nM
"CC1(NS(=O)(=O)c2cc(N3CCC4(CC3)COC4)n3ncc(-c4nnc(C5(F)CC5)s4)c3c2)CC1 [Example 12, 3-(5-(1-fluorocyclopropyl)-1,3,4-thiadiazol-2-yl)-N-(1-methylcyclopropyl)-7-(2-oxa-7-azaspiro[3.5]nonan-7-yl)pyrazolo[1,5-a]pyridine-5-sulfonamide]",< 100 nM,< 1000 nM
"CC1(NS(=O)(=O)c2cc(-n3cc(C4(C#N)CC4)cn3)c3cnn(-c4nnc(C5(O)CCC5)s4)c3c2)CC1 [Example 33, 4-(4-(1-cyanocyclopropyl)-1H-pyrazol-1-yl)-1-(5-(1-hydroxycyclobutyl)-1,3,4-thiadiazol-2-yl)-N-(1-methylcyclopropyl)-1H-indazole-6-sulfonamide]",100 to 500 nM,1000 to 5000 nM

# More lines, main results first:
IC50 [2],SMILES,IC50 [1]
< 100 nM,"Cn1ccnc1N1CCN(c2cc(S(=O)(=O)NC3(C#N)CC3)cc3c(-c4nnc(C(F)F)s4)cnn23)CC1 [Example 16, N-(1-cyanocyclopropyl)-3-(5-(difluoromethyl)-1,3,4-thiadiazol-2-yl)-7-(4-(1-methyl-1H-imidazol-2-yl)piperazin-1-yl)pyrazolo[1,5-a]pyridine-5-sulfonamide]",1000 to 5000 nM
< 100 nM,"O=S(=O)(NC1(C(F)F)CC1)c1cc(N2CCC3(CC2)COC3)c2cnc(-c3nnc(C(F)F)s3)n2c1 [Example 39, 3-(5-(difluoromethyl)-1,3,4-thiadiazol-2-yl)-N-(1-(difluoromethyl)cyclopropyl)-8-(2-oxa-7-azaspiro[3.5]nonan-7-yl)imidazo[1,5-a]pyridine-6-sulfonamide]",< 1000 nM
100 to 500 nM,"CC(=O)N1CCN(c2cc(S(=O)(=O)NC3(C)CC3)cc3c2cnn3-c2nc3c(s2)C(=O)COC3)CC1 [Example 28, 4-(4-acetylpiperazin-1-yl)-N-(1-methylcyclopropyl)-1-(7-oxo-6,7-dihydro-4H-pyrano[3,4-d]thiazol-2-yl)-1H-indazole-6-sulfonamide]",> 5000 nM
< 100 nM,"CC1(NS(=O)(=O)c2cc(N3CCC4(CC3)COC4)n3ncc(-c4nc5ncccc5s4)c3c2)CC1 [Example 21, N-(1-methylcyclopropyl)-7-(2-oxa-7-azaspiro[3.5]nonan-7-yl)-3-(thiazolo[4,5-b]pyridin-2-yl)pyrazolo[1,5-a]pyridine-5-sulfonamide]",< 1000 nM
< 100 nM,"Cc1nnc(N2CCN(c3cc(S(=O)(=O)NC4(C#N)CC4)cc4c(-c5nnc(C(F)F)s5)cnn34)CC2)s1 [Example 20, N-(1-cyanocyclopropyl)-3-[5-(difluoromethyl)-1,3,4-thiadiazol-2-yl]-7-[4-(5-methyl-1,3,4-thiadiazol-2-yl)piperazin-1-yl]pyrazolo[1,5-a]pyridine-5-sulfonamide]",< 1000 nM
< 100 nM,"N#CC1(NS(=O)(=O)c2cc(N3CCC4(CC3)COC4)n3cnc(-c4nnc(C(F)F)s4)c3c2)CC1 [Example 36, N-(1-cyanocyclopropyl)-1-(5-(difluoromethyl)-1,3,4-thiadiazol-2-yl)-5-(2-oxa-7-azaspiro[3.5]nonan-7-yl)imidazo[1,5-a]pyridine-7-sulfonamide]",< 1000 nM
< 100 nM,"CCCS(=O)(=O)N1CCN(c2cc(S(=O)(=O)NC3(C#N)CC3)cc3c(-c4nnc(C(F)F)s4)cnn23)CC1 [Example 18, N-(1-cyanocyclopropyl)-3-(5-(difluoromethyl)-1,3,4-thiadiazol-2-yl)-7-(4-(propylsulfonyl)piperazin-1-yl)pyrazolo[1,5-a]pyridine-5-sulfonamide]",< 1000 nM
< 100 nM,"N#CC1(NS(=O)(=O)c2cc(N3CCN(C(=O)C4CC4)CC3)n3ncc(-c4nnc(C(F)F)s4)c3c2)CC1 [Example 3, N-(1-cyanocyclopropyl)-7-[4-(cyclopropanecarbonyl)piperazin-1-yl]-3-[5-(difluoromethyl)-1,3,4-thiadiazol-2-yl]pyrazolo[1,5-a]pyridine-5-sulfonamide]",< 1000 nM
